The source made the active and inactive calls.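 How the source made its calls: active means compound flagged as a likely artifact in this counterscreen, with IC50 of 10 µM or lower; inactive means IC50 above 10 µM.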
System: HEK293 Gal4-VP16 luciferase reporter counterscreen, luminescence
Test: VP16-driven transactivation reporter suppression potency – cell-based, luminescence, HEK293, counter-screen for COUP-TFII inhibitor project, dose response (AID 720547);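 further: potency for lowering the luciferase signal driven by Gal4-VP16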

| Compound | IC50 |
| --- | --- |
| CCN(CC)S(=O)(=O)c1cccc(NC(=O)CNc2cccc(S(=O)(=O)N3CCCC3)c2)c1 | > 85.4 µM (inactive) |
| COc1cc2c(cc1OC)C1C(=O)c3ccc4c(c3OC1CO2)CC(C(C)C)O4 (configuration not stated) | > 28.5 µM (inactive) |
| Cn1nccc1C(=O)NC1CCCc2c1cnn2-c1ccccc1F (configuration not stated) | > 85.4 µM (inactive) |
| CCOC(=O)c1cnc(-n2nc(C)cc2C)nc1NC1CCCCC1 | 45.4 µM (inactive) |
| CC(=O)c1c(C)[nH]c(C(=O)OCC(=O)Nc2ccc(Cl)cc2[N+](=O)[O-])c1C | > 85.4 µM (inactive) |
| C[C@H]1C[C@@H](C)C(=O)[C@@H]([C@H](O)CC2CC(=O)NC(=O)C2)C1 | > 85.4 µM (inactive) |
| CC1C(OC(=O)CCC(=O)NC(C)(C)CO)O[C@H]2OC3(C)CC[C@H]4[C@H](C)CCC1C24OO3 (some centres not stated) | > 85.4 µM (inactive) |
| CC1Cc2cc(-c3csc(NC(=O)Cc4cccs4)n3)ccc2N1S(C)(=O)=O (configuration not stated) | 30.5 µM (inactive) |
| CC(C)(C)OC(=O)NCCCCCc1cn([C@@H](CO)C(=O)NCCCCCCCCCCC(=O)N2CCN(C(=O)OC(C)(C)C)CC2)nn1 | 13.3 µM (inactive) |
| O=C(Cc1ccc(Cl)cc1Cl)Nc1ccncc1Cl | > 85.4 µM (inactive) |
| CC1(C)CC(=O)C=C(c2ccc(-c3cnc4ccccc4c3)cc2)C1=O | 12.5 µM (inactive) |
| CCCCCCn1ccc(=N)cc1 | > 85.4 µM (inactive) |
| Cc1c(C(=O)NCc2ccc(C(C)C)cc2)sc(=O)n1Cc1ccc(S(=O)(=O)N(C)C)cc1 | > 85.4 µM (inactive) |
| COc1ccc2c(c1)[nH]c1c(N3CCN(Cc4ccc5c(c4)OCO5)CC3)ncnc12 | 39.6 µM (inactive) |
| COc1ccc(Cl)cc1Nc1nc(-c2sc(NC(=O)C(C)(C)C)nc2C)cs1 | > 85.4 µM (inactive) |
| Cc1ccc(-c2cc3cccc[n+]3cc2-c2ccc(C)cc2)cc1 | > 28.5 µM (inactive) |
| Cc1nc2c(-c3ccc(Cl)cc3)cnn2c(N)c1-c1ccc(F)cc1 | > 85.4 µM (inactive) |
| O=C(c1cccs1)C1CCN(c2ncnc3sccc23)CC1 | > 85.4 µM (inactive) |
| COc1ccc(C(=O)Nc2ccccc2C(=O)N/N=C/c2ccc(O)c(OC)c2)cc1 | > 28.5 µM (inactive) |
| COc1ccc(NC(=O)C2Cc3c(-c4ccc5c(c4)OCO5)ccnc3O2)cc1OC (configuration not stated) | > 85.4 µM (inactive) |
| Cc1cc(C(=O)NC2CCCc3c2cnn3-c2ccc(C(C)(C)C)cc2)nn1C (configuration not stated) | > 85.4 µM (inactive) |
| CC(=O)c1ccc(N2CCN(C(=S)Nc3ccc(Oc4ccccc4)cc3)CC2)cc1 | > 85.4 µM (inactive) |
| O=C1N(c2ccccc2)C[C@@H]2C[C@@H](c3cc4ccccc4o3)N3CCC[C@@]123 | > 85.4 µM (inactive) |

| Compound | IC50 |
| --- | --- |
| Fc1ccc(-n2nnnc2-c2cnc(-c3cccs3)nc2C(F)(F)F)cc1 | 33.4 µM (inactive) |
| CC1Cc2cc(-c3csc(NC(=O)Cc4ccccc4)n3)ccc2N1S(C)(=O)=O (configuration not stated) | > 85.4 µM (inactive) |
| COc1ccc(CNC(=O)c2cccc3c(-c4cccnc4)coc23)cc1OC | 43.4 µM (inactive) |
| COc1ccc(-n2nnnc2C(c2cc3ccccc3o2)N2CCC(n3c(=O)[nH]c4ccccc43)CC2)cc1 (configuration not stated) | 12.7 µM (inactive) |
| CCN=c1scc(-c2ccc3c(c2)NC(=O)CO3)n1N=C1CCCC1 | > 85.4 µM (inactive) |
| Cc1ccc(C(=O)NC2CCCc3c2cnn3-c2ccc(F)cc2F)cn1 (configuration not stated) | > 85.4 µM (inactive) |
| CN(CC1CCCO1)S(=O)(=O)c1ccc(C(=O)Nc2nc3cc4c(cc3s2)OCO4)cc1 (configuration not stated) | > 85.4 µM (inactive) |
| Cn1nc(C(C)(C)C)cc1C(=O)NCc1cc(F)cc2c1OCOC2 | > 85.4 µM (inactive) |
| COc1ccccc1-[n+]1c(C)cc(/C=C2\Sc3ccccc3N2C)cc1C | 27.8 µM (inactive) |
| Cc1nn(C)c(C)c1NC(=O)COc1ccc(Cl)cc1Br | > 85.4 µM (inactive) |
| O=C(Nc1ccc(Oc2ccccc2)cc1)c1csc([C@H]2C[C@H](O)[C@@H](CO)O2)n1 | > 85.4 µM (inactive) |
| CC(=O)Nc1ccccc1OCC(=O)c1cc(C)n(Cc2cccs2)c1C | > 85.5 µM (inactive) |
| O=C(CSc1nnc(Cn2nnc3ccccc32)o1)N(Cc1ccc(F)cc1)c1ccccc1 | > 85.4 µM (inactive) |
| CCC(C)NC(=O)CCC(=O)OC1O[C@H]2OC3(C)CC[C@H]4[C@H](C)CCC(C1C)C24OO3 (some centres not stated) | > 85.4 µM (inactive) |
| Cc1cc(-n2c(C)cc(C(=O)CSc3ncnc4ccccc34)c2C)no1 | > 85.5 µM (inactive) |
| Cc1cc(C)c(CN2CCN(C(=O)Cn3cnc4c(NCc5ccccc5)ncnc43)CC2)c(C)c1 | > 85.4 µM (inactive) |
| Cc1oc(-c2ccc(Cl)cc2)nc1CS(=O)CC(=O)NCCCN1CCN(Cc2ccccc2)CC1 (configuration not stated) | > 28.5 µM (inactive) |
| COc1ccc(/C=N/OCC(=O)NC(c2ccccc2)c2ccccc2)cc1OC | > 85.4 µM (inactive) |
| Cc1sc2ncnc(NCC3COc4ccccc4O3)c2c1C (configuration not stated) | > 85.4 µM (inactive) |
| C/C(=N\NC(N)=S)C1C2C3CC4C5CC(C42)C1C53 (configuration not stated) | > 85.4 µM (inactive) |
| CCOC(=O)c1cnc(-n2nc(C)cc2C)nc1NC1CCCC1 | 50.3 µM (inactive) |
| Cc1ccc(-c2csc(NC(=O)C3CCN(S(=O)(=O)c4cccs4)CC3)n2)cc1 | > 85.4 µM (inactive) |
| Cc1cccc(Nc2nc(-c3c(C)nc4ccccn34)cs2)c1 | 66.3 µM (inactive) |

| Compound | IC50 |
| --- | --- |
| Oc1ccc(CCNc2ncnc3ccc(Cl)cc23)cc1 | > 85.4 µM (inactive) |
| Cn1nc(CC(=O)Nc2ccc3c(c2)OCCO3)c2ccccc2c1=O | > 85.4 µM (inactive) |
| Cc1ccc(-n2nc3c(=O)n(C(C)C(=O)NCCCc4ccccc4)nc(C)c3c2C)cc1 (configuration not stated) | > 85.4 µM (inactive) |
| CCOc1ccc(-n2c(-c3ccccc3)c[n+]3c2CCCCC3)cc1 | > 85.4 µM (inactive) |
| NC(=O)c1c(-c2ccc(Cl)cc2Cl)csc1NC(=O)Cc1ccccc1 | > 85.4 µM (inactive) |
| c1ccc(C(Cc2nc(-c3ccncc3)no2)c2ccccc2)cc1 | > 85.4 µM (inactive) |
| Cc1ccc(S(=O)(=O)NCc2ccncc2)c(C)c1C | > 85.5 µM (inactive) |
| CC[n+]1c(C=C2C=C(C)OC(C)=C2)sc2ccccc21 | > 85.4 µM (inactive) |
| Cc1sc2ncnc(NCCc3ccc(S(N)(=O)=O)cc3)c2c1C | > 85.4 µM (inactive) |
| N#CCSc1nnc(-c2sc3ccccc3c2Cl)o1 | 85.9 µM (inactive) |
| Cc1c(/C(O)=C2/C(=O)C(=O)N(CCN3CCOCC3)C2c2ccco2)cnn1-c1ccccc1 (configuration not stated) | 21.3 µM (inactive) |
| Cc1nn(C)c(C)c1CN(C)S(=O)(=O)c1ccc2ccccc2c1 | > 85.4 µM (inactive) |
| CCCCCCn1c2c(c(=N)c3c1CCC3)CCC2 | > 85.4 µM (inactive) |
| COc1ccc(NC(=O)COc2ccc(N(C)S(=O)(=O)c3ccc(Cl)cc3)cc2)cc1OC | > 85.4 µM (inactive) |
| c1ccc2cc3[nH]c(CNc4nc(N5CCOCC5)nc5c4ncn5-c4ccsc4)nc3cc2c1 | > 85.3 µM (inactive) |
| O=C(NC1CCCCCCC1)c1cc(COc2ccc3ncccc3c2)on1 | > 85.4 µM (inactive) |
| COc1ccc(CN(C)c2ccc(S(=O)(=O)N3CCN(C)CC3)cc2[N+](=O)[O-])cc1OC | > 85.4 µM (inactive) |
| C[n+]1c2n(c3ccccc31)N=C(c1ccccc1)CS2 | > 85.5 µM (inactive) |
| Nc1nc2ccccc2cc1C(=O)NCc1ccc(-c2ccccc2)cc1 | > 85.3 µM (inactive) |
| NC(=S)NN=C1c2cc(OCCN3CCOCC3)ccc2-c2ccc(OCCN3CCOCC3)cc21 | 12 µM (inactive) |
| C=CCC1(CC=C)CCCN1C(=O)c1cc(COc2ccc(C)nc2)on1 | > 85.4 µM (inactive) |
| COc1ccc(OC)c(CCNC(=O)Cn2nc(C)c3c(C)n(-c4ccc(C)cc4)nc3c2=O)c1 | > 28.5 µM (inactive) |
| S=C(NCCc1ccccc1)Nc1cccc2cnccc12 | > 85.4 µM (inactive) |

| Compound | IC50 |
| --- | --- |
| CC[C@H]1CN2CCc3cc(OC)c(OC)cc3C2C[C@@H]1C[C@H]1NCCc2cc(OC)c(OC)cc21 (some centres not stated) | > 85.4 µM (inactive) |
| CCc1cc(-c2nnn(CCC3COCCO3)c2CC)ccc1-c1cn(Cc2ccc3ccccc3c2)nn1 (configuration not stated) | > 85.4 µM (inactive) |
| COc1ccc(C2=Nn3c([n+](C)c4ccccc43)SC2)cc1 | > 85.4 µM (inactive) |
| CCc1cc(C(=O)NC2CCCc3c2cnn3-c2cccc(C)c2C)n(C)n1 (configuration not stated) | > 85.4 µM (inactive) |
| CCOC(=O)C1CCCN(S(=O)(=O)c2ccc(S(=O)(=O)N(CC)CC)cc2)C1 (configuration not stated) | > 85.4 µM (inactive) |
| CCNc1nc(-c2sc(NC(=O)C(C)(C)C)nc2C)c(-n2cc(-c3ccccc3)nn2)s1 | 21.1 µM (inactive) |
| CCOc1cc(S(=O)(=O)NCc2ccncc2)ccc1Cl | > 85.4 µM (inactive) |
| CC(C)(C)c1ccc(/C=N/Nc2ccc(C(=O)O)cc2)cc1 | > 85.4 µM (inactive) |
| Cc1ccc(-c2cn(-c3ccccc3)c3[n+]2CCCS3)cc1 | > 85.4 µM (inactive) |
| Fc1ccc(CN2CCN(c3ncc(Cc4ccccc4)cn3)CC2)c(Cl)c1 | > 85.3 µM (inactive) |
| CSc1ccccc1OCc1cc(C(=O)N2CCC(c3ccncc3)CC2)no1 | > 85.4 µM (inactive) |
| COc1ccc(-n2cc(-c3ccc(C)cc3)[n+]3c2SCC3)cc1 | > 85.4 µM (inactive) |
| Cc1cc(/C=C2\Sc3ccccc3N2C)cc(C)[n+]1CC1CCCO1 (configuration not stated) | > 85.4 µM (inactive) |
| OC[C@@H]1CN(Cc2ccc(-c3ccccc3)cc2)C[C@H](n2cnc3c(NC4CCC4)ncnc32)O1 | 64.1 µM (inactive) |
| CCCCOC(=O)c1[nH]c2c(c1C)C(=O)CC(c1cc(OC)c(OC)c(OC)c1)C2 (configuration not stated) | > 85.4 µM (inactive) |
| O=C(Nc1ccncc1)c1ccc(Cl)c(S(=O)(=O)N2CCc3ccccc32)c1 | 60.6 µM (inactive) |
| O=C(CSc1nnnn1C1CC2CCC1C2)Nc1ccnc2ccccc12 (configuration not stated) | > 85.4 µM (inactive) |
| COC(=O)C1CCCCN1C(=O)c1cc(COc2cccc3cnccc23)on1 (configuration not stated) | > 85.4 µM (inactive) |
| CC(=O)c1cn(CCOc2ccccc2C)c2ccccc12 | > 85.4 µM (inactive) |
| Cc1c(C(=O)N2CCN(Cc3ccc4c(c3)OCO4)CC2)sc2ncnc(N3CCN(c4ccccc4F)CC3)c12 | 62.7 µM (inactive) |
| Cc1ccc(-n2nc3c(=O)n(C(C)C(=O)NCc4ccccc4Cl)nc(C)c3c2C)cc1 (configuration not stated) | 81.8 µM (inactive) |
| Cc1ccc(S(=O)(=O)CC2CSc3nc4ccccc4n32)cc1 (configuration not stated) | > 85.4 µM (inactive) |
| Cn1c(=O)c2[nH]c(CCCCCCCCc3nc4ccccc4[nH]3)nc2n(C)c1=O | > 28.5 µM (inactive) |

From PubChem BioAssay AID720547 (The Scripps Research Institute Molecular Screening Center, 2013)
